Reference: the supplement of paper PMC10307832

Assays:
Assay in all cases: relative viability (nuclei count vs DMSO), 5 days (fraction); higher = more cells survive
[1] = compound: CC1=CC=C(C=C1)C(=O)CN2C3=C(CCCC3)SC2=N [Pifithrin_alpha] + COc1cccc2cc(-c3nc([C@H]4CC[C@H](C(=O)O)CC4)n4ncnc(N)c34)[nH]c12 [OSI-027] (partner 0.5 µM)
How it was run: (§1)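 Lung cancer cell lines in 1536-well plates got either a single drug or a fixed anchor-drug dose together with five library-drug doses (not always all listed) in √10 steps, by pin tool, on the day after seeding. Nuclei were counted after 5 days, and relative viability is the treated-to-vehicle ratio of nuclei counts. Values are medians of duplicate plates.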

[2] = compound: CC1=CC=C(C=C1)C(=O)CN2C3=C(CCCC3)SC2=N [Pifithrin_alpha] + Cc1nc(Nc2ncc(C(=O)Nc3c(C)cccc3Cl)s2)cc(N2CCN(CCO)CC2)n1 [Dasatinib] (partner 0.075 µM)
How it was run: as §1

Axitinib + Trametinib = compound: CNC(=O)c1ccccc1Sc1ccc2c(/C=C/c3ccccn3)n[nH]c2c1 [Axitinib] + CC(=O)Nc1cccc(-n2c(=O)n(C3CC3)c(=O)c3c(Nc4ccc(I)cc4F)n(C)c(=O)c(C)c32)c1 [Trametinib] (partner 0.02 µM)
How it was run: as §1

Axitinib + Phenformin = compound: CNC(=O)c1ccccc1Sc1ccc2c(/C=C/c3ccccn3)n[nH]c2c1 [Axitinib] + N=C(N)NC(=N)NCCc1ccccc1 [Phenformin] (partner 250 µM)
How it was run: as §1

Cell Line	relative viability ([1]; first compound 1 µM)	relative viability ([1]; first compound 3.162 µM)	relative viability ([1]; first compound 100 µM)	relative viability ([2]; first compound 1 µM)	relative viability ([2]; first compound 3.162 µM)	relative viability ([2]; first compound 100 µM)	relative viability (Axitinib + Trametinib; first compound 0.005 µM)	relative viability (Axitinib + Trametinib; first compound 0.01581 µM)	relative viability (Axitinib + Trametinib; first compound 0.05 µM)	relative viability (Axitinib + Trametinib; first compound 0.1581 µM)	relative viability (Axitinib + Trametinib; first compound 0.5 µM)	relative viability (Axitinib + Phenformin; first compound 0.005 µM)	relative viability (Axitinib + Phenformin; first compound 0.01581 µM)	relative viability (Axitinib + Phenformin; first compound 0.05 µM)	relative viability (Axitinib + Phenformin; first compound 0.1581 µM)	relative viability (Axitinib + Phenformin; first compound 0.5 µM)	relative viability ([1]; first compound 10 µM)	relative viability ([2]; first compound 10 µM)	relative viability ([1]; first compound 31.62 µM)	relative viability ([2]; first compound 31.62 µM)
NCI-H1915	0.567	0.628	0.584	0.284	0.295	0.276	0.34	0.299	0.312	0.298	0.33	0.385	0.362	0.371	0.35	0.393	–	–	–	–
NCI-H3122	1	1.26	0.786	0.82	0.901	0.758	0.217	0.212	0.255	0.217	0.267	0.347	0.369	0.397	0.379	0.415	1.01	0.732	–	–
BEN	0.294	0.278	0.266	0.217	0.36	0.299	1.33	1.04	0.885	0.992	1.01	0.268	0.29	0.246	0.236	0.262	0.306	0.373	0.286	0.343
201T	0.453	0.542	0.467	0.47	0.337	0.399	0.715	0.682	0.711	0.713	0.732	0.475	0.412	0.449	0.446	0.399	0.524	0.431	0.439	0.392
NCI-H1792	–	0.668	0.458	–	1.17	0.639	0.618	0.363	0.499	0.494	0.498	0.323	–	–	0.304	0.186	0.538	0.641	0.391	0.533
NCI-H1666	0.789	0.771	0.585	0.808	0.81	0.542	0.904	0.868	0.863	0.847	0.873	0.588	0.559	0.552	0.586	0.502	0.651	0.682	0.642	0.588
NCI-H1993	0.509	0.537	0.59	0.531	0.532	0.608	0.433	0.373	0.535	0.503	0.506	0.494	0.514	0.496	0.592	0.529	0.571	0.581	0.65	0.559
CAL-12T	0.455	0.592	0.444	0.327	0.249	0.196	0.401	0.311	0.336	0.288	0.338	0.567	0.53	0.559	0.63	0.504	0.457	0.258	–	–
NCI-H460	0.613	0.541	0.48	0.433	0.414	0.266	0.165	0.177	0.188	0.297	0.253	0.553	0.515	0.583	0.518	0.678	0.397	0.35	0.274	0.31
NCI-H2170	0.729	0.673	0.558	0.68	0.467	0.404	0.925	0.926	0.875	0.917	1.08	0.435	0.412	0.468	0.415	0.5	0.7	0.512	0.556	0.39
LC-2-ad	–	0.84	0.675	–	0.492	0.437	0.953	0.864	0.885	0.873	0.871	0.578	0.592	0.586	0.527	0.498	0.797	0.347	–	–
HCC-78	0.349	0.388	0.349	0.259	0.354	0.455	0.955	0.683	0.518	0.615	0.986	0.67	0.667	0.752	0.657	0.474	0.34	0.336	0.326	0.417
NCI-H322M	0.536	0.531	0.508	0.25	0.258	0.226	0.577	0.458	0.48	0.467	0.486	0.886	0.754	0.812	0.712	0.989	0.503	0.245	0.419	0.245
NCI-H1651	0.682	0.664	0.6	0.37	0.506	0.326	0.9	0.84	0.744	0.797	0.826	0.295	0.295	0.347	0.304	0.353	0.666	0.425	0.449	0.322
SW 900	0.399	0.648	0.357	0.366	0.487	0.307	0.915	–	0.926	0.687	0.943	0.577	0.411	0.464	0.46	0.803	0.502	0.318	0.342	0.349
NCI-H1437	1.06	0.903	0.41	0.545	0.474	0.45	0.634	0.488	0.557	0.554	0.519	0.335	0.314	0.357	0.277	0.299	0.905	0.401	0.65	0.349
NCI-H1355	0.336	0.329	0.309	0.502	0.409	0.445	0.409	0.423	0.397	0.417	0.493	0.457	0.46	0.497	0.44	0.43	0.323	0.386	0.307	0.414
